For the assay, the target named is human orexin 2 receptor (Homo sapiens (Human), UniProt O43614). The assay is described as follows: Human orexin 2 receptor Ca2+ mobilization assay (FLIPR, PFSK cells, orexin B 100 nM). Type of assay: cell-based. The note with it: modified Cheng-Prusoff correction, read-out: OR 2 Kb. Background: Calcium assays in cells follow changes in intracellular calcium, usually with a dye or a luminescent sensor.

The source of these data is patent publication US9586962B2, “Disubstituted octahydropyrrolo [3,4-C] pyrroles as orexin receptor modulators” (Janssen Pharmaceutica NV, priority 2011, dated 2017).

human orexin 2 receptor, sequence (O43614 whole entry): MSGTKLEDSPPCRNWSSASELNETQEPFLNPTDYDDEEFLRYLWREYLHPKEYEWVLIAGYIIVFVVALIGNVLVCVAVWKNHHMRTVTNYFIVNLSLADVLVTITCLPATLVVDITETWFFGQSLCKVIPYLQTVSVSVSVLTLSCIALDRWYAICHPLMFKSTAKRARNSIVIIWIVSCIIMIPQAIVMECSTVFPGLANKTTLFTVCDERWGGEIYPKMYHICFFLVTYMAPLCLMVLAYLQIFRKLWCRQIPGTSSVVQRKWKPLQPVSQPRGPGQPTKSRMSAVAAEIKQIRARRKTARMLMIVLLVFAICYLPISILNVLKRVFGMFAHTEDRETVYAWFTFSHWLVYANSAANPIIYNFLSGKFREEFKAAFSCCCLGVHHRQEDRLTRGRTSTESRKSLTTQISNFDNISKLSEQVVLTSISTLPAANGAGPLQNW

In the case of `O=C(c1ccccc1-n1nccn1)N1CC2CN(c3nccc(C(F)(F)F)n3)CC2C1` (stereo not drawn) [Example 153, 2-{[2-(2H-1,2,3-Triazol-2-yl)phenyl]carbonyl}-5-[4-(trifluoromethyl)pyrimidin-2-yl]octahydropyrrolo[3,4-c]pyrrole], the Kb was determined as 40 nM.

`Cc1cnc(C)c(N2CC3CN(C(=O)c4ccccc4-n4nccn4)CC3C2)n1` (stereo not drawn) [Example 155, 2-(3,6-Dimethylpyrazin-2-yl)-5-{[2-(2H-1,2,3-triazol-2-yl)phenyl]carbonyl}octa hydropyrrolo[3,4-c]pyrrole]: the Kb was 16 nM.

As to `COc1ccnc(N2CC3CN(C(=O)c4ccccc4-n4nccn4)CC3C2)n1` (stereo not drawn) [Example 156, 2-(4-Methoxypyrimidin-2-yl)-5-{[2-(2H-1,2,3-triazol-2-yl)phenyl]carbonyl}octa hydropyrrolo[3,4-c]pyrrole], the Kb amounted to 16 nM.

With `Cc1cncc(N2CC3CN(C(=O)c4ccc(F)cc4-n4nccn4)CC3C2)n1` (stereo not drawn) [Example 158, 2-{[4-Fluoro-2-(2H-1,2,3-triazol-2-yl)phenyl]carbonyl}-5-(6-methylpyrazin-2-yl)octahydropyrrolo[3,4-c]pyrrole], the Kb is 8 nM.

With `COc1ccnc(N2CC3CN(C(=O)c4ccc(F)cc4-n4nccn4)CC3C2)n1` (stereo not drawn) [Example 159, 2-{[4-Fluoro-2-(2H-1,2,3-triazol-2-yl)phenyl]carbonyl}-5-(4-methoxypyrimidin-2-yl)octahydropyrrolo[3,4-c]pyrrole], the Kb turned out to be 8 nM.

For the compound `COc1cc(OC)nc(N2CC3CN(C(=O)c4ccc(F)cc4-n4nccn4)CC3C2)n1` (stereo not drawn) [Example 160, 2-(4,6-Dimethoxypyrimidin-2-yl)-5-{[4-fluoro-2-(2H-1,2,3-triazol-2-yl)phenyl]carbonyl}octahydropyrrolo[3,4-c]pyrrole], the Kb was 20 nM.

For the compound `COc1ccc(C(=O)N2CC3CN(c4nc5ccc(Cl)cc5s4)CC3C2)c(OC)c1` (stereo not drawn) [Example 163, 6-Chloro-2-{5-[(2,4-dimethoxyphenyl)carbonyl]hexahydropyrrolo[3,4-c]pyrrol-2(1H)-yl}-1,3-benzothiazole], the Kb was 501 nM.

On to `O=C(c1ccccc1-c1ccccc1)N1CC2CN(c3nccc(-c4ccccc4)n3)CC2C1` (stereo not drawn) [Example 164, 2-(Biphenyl-2-ylcarbonyl)-5-(4-phenylpyrimidin-2-yl)octahydropyrrolo[3,4-c]pyrrole], for which the Kb was determined as 200 nM.

Take `COc1ccc(C(=O)N2CC3CN(c4nccc(-c5ccccc5)n4)CC3C2)c(OC)c1` (stereo not drawn) [Example 167, 2-[(2,4-Dimethoxyphenyl)carbonyl]-5-(4-phenylpyrimidin-2-yl)octahydropyrrolo[3,4-c]pyrrole]: the Kb was found to be 631 nM.

On to `O=C(c1ccccc1-c1ccccc1)N1CC2CN(c3cnc4ccccc4n3)CC2C1` (stereo not drawn) [Example 168, 2-[5-(Biphenyl-2-ylcarbonyl)hexahydropyrrolo[3,4-c]pyrrol-2(1H)-yl]quinoxaline], for which the Kb turned out to be 126 nM.

For the compound `O=C(c1ccccc1-c1ccccc1)N1CC2CN(c3nc4ccc(F)cc4s3)CC2C1` (stereo not drawn) [Example 176, 2-[5-(Biphenyl-2-ylcarbonyl)hexahydropyrrolo[3,4-c]pyrrol-2(1H)-yl]-6-fluoro-1,3-benzothiazole], the Kb was 158 nM.

For `Cc1cc(N2CC3CN(C(=O)c4ccccc4-c4ccccc4)CC3C2)nc2ccccc12` (stereo not drawn) [Example 178, 2-[5-(Biphenyl-2-ylcarbonyl)hexahydropyrrolo[3,4-c]pyrrol-2(1H)-yl]-4-methylquinoline], the Kb came out at 126 nM.

In the case of `Cc1cc(N2CC3CN(C(=O)c4cc(F)ccc4-c4ncccn4)CC3C2)nc(C(F)(F)F)n1` (stereo not drawn) [Example 204, (5-Fluoro-2-pyrimidin-2-yl-phenyl)-[5-(6-methyl-2-trifluoromethyl-pyrimidin-4-yl)-hexahydro-pyrrolo[3,4-c]pyrrol-2-yl]-methanone], the Kb was determined as 20 nM.

`Cc1cncc(N2CC3CN(C(=O)c4ccccc4-n4nccn4)CC3C2)n1` (stereo not drawn) [Example 211, [5-(6-Methyl-pyrazin-2-yl)-hexahydro-pyrrolo[3,4-c]pyrrol-2-yl]-(2-[1,2,3]triazol-2-yl-phenyl)-methanone]: the Kb worked out at 25 nM.

With `Cc1cnc(C)c(N2CC3CN(C(=O)c4cc(F)ccc4-c4ncccn4)CC3C2)n1` (stereo not drawn) [Example 212, [5-(3,6-Dimethyl-pyrazin-2-yl)-hexahydro-pyrrolo[3,4-c]pyrrol-2-yl]-(5-fluoro-2-pyrimidin-2-yl-phenyl)-methanone], the Kb stood at 32 nM.

Turning to `Cc1cnc(C)c(N2CC3CN(C(=O)c4ccccc4-c4ncn[nH]4)CC3C2)n1` (stereo not drawn) [Example 213, [5-(3,6-Dimethyl-pyrazin-2-yl)-hexahydro-pyrrolo[3,4-c]pyrrol-2-yl]-[2-(2H-[1,2,4]triazol-3-yl)-phenyl]-methanone], the Kb amounted to 50 nM.

Take `Cc1cc(C)nc(N2CC3CN(C(=O)c4ccc(F)cc4-c4ncccn4)CC3C2)n1` (stereo not drawn) [Example 231, (5-(4,6-Dimethylpyrimidin-2-yl)hexahydropyrrolo[3,4-c]pyrrol-2(1H)-yl)(4-fluoro-2-(pyrimidin-2-yl)phenyl)methanone]: the Kb was 7 nM.

With `Cc1cc(C)nc(N2CC3CN(C(=O)c4cccc(F)c4I)CC3C2)n1` (stereo not drawn) [Example 232, (5-(4,6-Dimethylpyrimidin-2-yl)hexahydropyrrolo[3,4-c]pyrrol-2(1H)-yl)(3-fluoro-2-iodophenyl)methanone], the Kb turned out to be 7 nM.

In the case of `Cc1cc(C)nc(N2CC3CN(C(=O)c4cccnc4-c4ccn[nH]4)CC3C2)n1` (stereo not drawn) [Example 237, (2-(1H-Pyrazol-5-yl)pyridin-3-yl)(5-(4,6-dimethylpyrimidin-2-yl)hexahydropyrrolo[3,4-c]pyrrol-2(1H)-yl)methanone], the Kb amounted to 18 nM.

As for `Cc1nc(N2CC3CN(C(=O)c4cccc(F)c4-c4ncccn4)CC3C2)nc(C)c1C` (stereo not drawn) [Example 239, (3-Fluoro-2-(pyrimidin-2-yl)phenyl)(5-(4,5,6-trimethylpyrimidin-2-yl)hexahydropyrrolo[3,4-c]pyrrol-2(1H)-yl)methanone], the Kb is 4 nM.

In the case of `Cc1nc(N2CC3CN(C(=O)c4cccc(F)c4-n4nccn4)CC3C2)nc(C)c1C` (stereo not drawn) [Example 240, (3-Fluoro-2-(2H-1,2,3-triazol-2-yl)phenyl)(5-(4,5,6-trimethylpyrimidin-2-yl)hexahydropyrrolo[3,4-c]pyrrol-2(1H)-yl)methanone], the Kb was 3 nM.

For the compound `COc1ccc(-n2nccn2)c(C(=O)N2CC3CN(c4nc(C)c(C)c(C)n4)CC3C2)c1` (stereo not drawn) [Example 241, (5-Methoxy-2-(2H-1,2,3-triazol-2-yl)phenyl)(5-(4,5,6-trimethylpyrimidin-2-yl)hexahydropyrrolo[3,4-c]pyrrol-2(1H)-yl)methanone], the Kb was determined as 7 nM.

On to `O=C(c1cccc(F)c1-n1nccn1)N1CC2CN(c3ncc4cc(F)ccc4n3)CC2C1` (stereo not drawn) [Example 242, (3-Fluoro-2-(2H-1,2,3-triazol-2-yl)phenyl)(5-(6-fluoroquinazolin-2-yl)hexahydropyrrolo[3,4-c]pyrrol-2(1H)-yl)methanone], for which the Kb is 13 nM.

For the compound `O=C(c1cccc(F)c1-c1ncccn1)N1CC2CN(c3ncc4cc(F)ccc4n3)CC2C1` (stereo not drawn) [Example 243, (3-Fluoro-2-(pyrimidin-2-yl)phenyl)(5-(6-fluoroquinazolin-2-yl)hexahydropyrrolo[3,4-c]pyrrol-2(1H)-yl)methanone], the Kb came to 6 nM.

For the compound `COc1ccc(-n2nccn2)c(C(=O)N2CC3CN(c4cnc5cc(F)c(F)cc5n4)CC3C2)c1` (stereo not drawn) [Example 245, (5-(6,7-Difluoroquinoxalin-2-yl)hexahydropyrrolo[3,4-c]pyrrol-2(1H)-yl)(5-methoxy-2-(2H-1,2,3-triazol-2-yl)phenyl)methanone], the Kb worked out at 15 nM.

In the case of `O=C(c1c(F)cccc1-n1nccn1)N1CC2CN(c3cnc4cc(F)c(F)cc4n3)CC2C1` (stereo not drawn) [Example 246, (5-(6,7-Difluoroquinoxalin-2-yl)hexahydropyrrolo[3,4-c]pyrrol-2(1H)-yl)(2-fluoro-6-(2H-1,2,3-triazol-2-yl)phenyl)methanone], the Kb turned out to be 11 nM.

With `COc1ccc(C(=O)N2CC3CN(c4nc(C)cc(C)n4)CC3C2)c(-c2ncccn2)c1` (stereo not drawn) [Example 272, (5-(4,6-Dimethylpyrimidin-2-yl)hexahydropyrrolo[3,4-c]pyrrol-2(1H)-yl)(4-methoxy-2-(pyrimidin-2-yl)phenyl)methanone], the Kb was determined as 7 nM.

As for `Cc1cc(C)nc(N2CC3CN(C(=O)c4ccccc4OC(F)(F)F)CC3C2)n1` (stereo not drawn) [Example 274, (5-(4,6-Dimethylpyrimidin-2-yl)hexahydropyrrolo[3,4-c]pyrrol-2(1H)-yl)(2-(trifluoromethoxy)phenyl)methanone], the Kb was 16 nM.

Take `Cc1cc(C)nc(N2CC3CN(C(=O)c4cccc(F)c4-c4ncccn4)CC3C2)n1` (stereo not drawn) [Example 283, 2-(4,6-Dimethylpyrimidin-2-yl)-5-[(3-fluoro-2-pyrimidin-2-ylphenyl)carbonyl]octahydropyrrolo[3,4-c]pyrrole]: the Kb was found to be 2 nM.

For `Cc1cc(C)nc(N2CC3CN(C(=O)c4cccc(F)c4-c4ccn[nH]4)CC3C2)n1` (stereo not drawn) [Example 284, 2-(4,6-Dimethylpyrimidin-2-yl)-5-{[3-fluoro-2-(1H-pyrazol-5-yl)phenyl]carbonyl}octahydropyrrolo[3,4-c]pyrrole], the Kb was determined as 2 nM.

Turning to `Cc1nc(N2CC3CN(C(=O)c4ccccc4-n4nccn4)CC3C2)ncc1F` (stereo not drawn) [Example 290, 2-(5-Fluoro-4-methylpyrimidin-2-yl)-5-{[2-(2H-1,2,3-triazol-2-yl)phenyl]carbonyl}octahydropyrrolo[3,4-c]pyrrole], the Kb amounted to 7 nM.

On to `Cc1cc(C)nc(N2CC3CN(C(=O)c4ccccc4-c4nc(C)no4)CC3C2)n1` (stereo not drawn) [Example 306, 2-(4,6-Dimethylpyrimidin-2-yl)-5-{[2-(3-methyl-1,2,4-oxadiazol-5-yl)phenyl]carbonyl}octahydropyrrolo[3,4-c]pyrrole], for which the Kb stood at 13 nM.

Regarding `Cc1cc(C)nc(N2CC3CN(C(=O)c4ccccc4-c4ncn(C)n4)CC3C2)n1` (stereo not drawn) [Example 308, 2-(4,6-Dimethylpyrimidin-2-yl)-5-{[2-(1-methyl-1H-1,2,4-triazol-3-yl)phenyl]carbonyl}octahydropyrrolo[3,4-c]pyrrole], the Kb is 5 nM.
